# Measured values taken from article PMC10145367, “Acute and Transgenerational Effects of Non-Steroidal Anti-Inflammatory Drugs on Daphnia magna” (Toxics, 2023).
# Like-named read-outs stand apart in the source and are kept apart here.
# Tests used:
# peptidase (PEP) [1] = details: chronic exposure of daphnids; ref [30]; cited from earlier work
# [2] = tested on: alkaline phosphatase (ALP); parameters: method as in PMID 36835510; details: chronic exposure of daphnids; ref [30]; cited from earlier work
# Daphnia magna [3] = details: neonates of D. magna; ref [67],[68]; cited from earlier work
# acid phosphatase (ACP) [4] = tested on: acid phosphatase (ACP); parameters: method as in PMID 36835510; details: chronic exposure of daphnids; ref [30]; cited from earlier work
# GST [5] = tested on: GST; parameters: method as in PMID 32259738; details: exposure for 14 days; ref [71]; cited from earlier work
# [6] = cited from earlier work
# Daphnia magna [7] = test: Acute toxicity (immobilization) of neonates, 24 h toxicity curves
# lipase (LIP) = test: Lipase activity in daphnid homogenate after chronic/transgenerational exposure; format: in vivo, Daphnia magna
# peptidase (PEP) [8] = test: Peptidase activity in daphnid homogenate after chronic/transgenerational exposure; format: in vivo, Daphnia magna
# D. magna = details: ref [21], cited from earlier work
# Daphnia magna [9] = test: Feeding assay (ingestion of fluorescent microparticles); format: in vivo; details: neonates, 1 mg/L for 24 h
# Method: After 24 h, twenty […] transferred in a 12-well plate with 6 mL OECD containing the carboxylate-modified polystyrene, fluorescent red microparticles (2.0 μm mean particle size) at a concentration of 13 mg/L. The animals were exposed to the microplastic for up to 90 min, and media was collected every 15 min to estimate the removed microparticles by fluorescence at Ex 560 Em 590 nm using a TECAN plate reader. The concentration of microparticles in the media was optimized to ensure an excess of microparticles for the accurate quantification of ingestion. Furthermore, we have extensively tested these particles, which show no toxicity to the […] for the short exposure periods used. We performed control experiments with neonates, as they would be more sensitive, for even up to 10 h to microplastics at even higher concentrations (up to 52 mg/L), and all animals from all experiments following the feeding assay were alive and healthy. Fluorescence was expressed to the amount of ingested microparticles using a standard curve. To confirm the ingestion of microparticles in the gut of […], animals were imaged with a stereoscope and fluorescence microscopy using the TRITC filter for carboxyl functionalized particles. […] The animals were fed daily with 2 mL of fresh algae (Chlamydomonas reinhardtii) with a concentration of 6 million cells/mL. […]
# [10] = tested on: alkaline phosphatase (ALP); details: 1 mg/L
# Method: (§1) Chronic exposure was performed at 1 mg/L of each NSAID and their 1:1 mixture separately, which was selected as a non-lethal concentration. For enzyme activities in chronic and transgenerational exposures, neonates were cultured for two consecutive generations and following a 21-day recovery period (Figure 1B). […] Media and NSAIDs were renewed twice a week. Although the concentration of NSAIDs was not measured throughout the exposure, their renewal twice a week was sufficient to exert their action. […] Daphnids were fed daily with 2 mL fresh algae (C. reinhardtii) with a concentration of 6 million cells/mL, and a seaweed extract (Ascophylum nodosum) was supplemented only on the days of media change.
# (§2) Five 7, 14, and 21-day-old animals were used per biological replicate and homogenized in 0.5 mL ddH2O using a pestle homogenizer. The homogenate was cleared by centrifugation (12,000× g for 5 min at 5 °C), and the clear supernatant was collected and used to assess the enzyme activity as described elsewhere. 200 μL appropriately diluted sample in buffer was assessed for the activity of phosphatases (in 100 mM acetic acid pH 4.5 for acid phosphatase or 100 mM boric acid pH 9.8 for alkaline phosphatase) using 50 μL of the substrate p-nitrophenyl phosphate (8 mM) and monitoring the production of p-nitrophenol at 405 nm after its alkalinization (with 50 μL 4M NaOH). In addition, the activities of β-galactosidase and lipase were measured with the same experimental conditions by the generation of nitrophenol from the catalysis of o-nitrophenyl-β-galactoside or p-nitrophenyl butyrate, respectively, but in phosphate buffer pH 7.2. Glutathione-S-transferase (GST) activity was assessed by the reaction of reduced glutathione with 1-chloro-2,4-dinitrobenzene. 200 μL appropriately diluted sample in phosphate buffer pH 7.2 was mixed with 50 μL 2 mM CDNB, and 6 mM reduced glutathione, and the formation of the complex was measured continuously at 340 nm and converted to units of activity with the extinction coefficient. Protein was quantified by an ultrasensitive Bradford protocol to normalize the results.
# [11] = tested on: glutathione-S-transferase (GST); details: 1 mg/L
# Method: as §1, §2
# β-galactosidase (β-gal) = details: 1 mg/L
# Method: as §1, §2
# GST [12] = details: 28-day exposure to 25 mg/L; ref [53]; cited from earlier work
# acid phosphatase (ACP) [13] = test: Acid phosphatase activity in daphnid homogenate after chronic/transgenerational exposure; format: in vivo, Daphnia magna
# [14] = neonates, 24 h exposure, immobilization
# [15] = 1 mg/L, age 7 days, first generation
# [16] = 1 mg/L, age 14 days, first generation
# [17] = 1 mg/L, age 21 days, 2nd generation
# [18] = 1 mg/L, age 21 days, first generation
# [19] = age 21 days, 3rd generation recovery in clean OECD media after two generations at 1 mg/L
smiles,measurement,setting,value
O=C(O)Cc1ccccc1Nc1c(Cl)cccc1Cl [Diclofenac],effect on activity of PEP,peptidase (PEP) [1],increasing
same,effect on activity of ALP,[2],reduced
same,effect on feeding rate,Daphnia magna [3],reduce the feeding rate
same,effect on activity of ACP,acid phosphatase (ACP) [4],reduced
CC(C)Cc1ccc(C(C)C(=O)O)cc1 (stereo not shown) [Ibuprofen],effect on activity of GST,GST [5],reduced the activity of GST
same,average strength maintained,"[6]; for 5 months, ref [39]",> 90%
same,time stable,"[6]; room temperature, ref [37],[38]",15 days
same,EC50,"Daphnia magna [7]; Daphnia magna, 24 h",17.8 µg/mL
same,EC1,Daphnia magna [7]; [14],8.62 mg/L
same,EC5,Daphnia magna [7]; [14],11.19 mg/L
same,EC10,Daphnia magna [7]; [14],12.59 µg/mL
same,EC20,Daphnia magna [7]; [14],14.3 µg/mL
same,LIP enzyme activity,lipase (LIP); [15],123.76 ± 2.26 units/mg protein
same,change of LIP activity compared with DMSO,lipase (LIP); [15],−10%
same,LIP enzyme activity,lipase (LIP); [16],148.12 ± 37.62 units/mg protein
same,LIP enzyme activity,lipase (LIP); [17],47.53 ± 1.66 units/mg protein
same,change of LIP activity compared with DMSO,lipase (LIP); [17],−28%
same,LIP enzyme activity,lipase (LIP); [18],78.43 ± 4.27 units/mg protein
same,LIP enzyme activity,lipase (LIP); [19],53.32 ± 6.51 units/mg protein
same,PEP enzyme activity,peptidase (PEP) [8]; [15],29.54 ± 7.34 units/mg protein
same,PEP enzyme activity,peptidase (PEP) [8]; [16],1.93 ± 0.27 units/mg protein
same,PEP enzyme activity,peptidase (PEP) [8]; [18],10.52 ± 1.39 units/mg protein
same,PEP enzyme activity,peptidase (PEP) [8]; [19],4.61 ± 0.35 units/mg protein
same,survival,D. magna; neonates exposed to 20 mg/L and 40 mg/L for 14 days,unaffected
same,reduction of survival,D. magna; neonates exposed to 80 mg/L for 14 days,19%
same,reduction of feeding rate compared to DMSO,Daphnia magna [9],30%
same,ALP enzyme activity,"[10]; age 7 days, first generation",6.55 ± 0.26 units/mg protein
same,ALP enzyme activity,"[10]; age 14 days, first generation",2.63 ± 0.14 units/mg protein
same,ALP enzyme activity,"[10]; age 21 days, 2nd generation",3.27 ± 0.15 units/mg protein
same,change of ALP activity compared with DMSO,"[10]; age 21 days, 2nd generation",−10%
same,GST enzyme activity,"[11]; age 7 days, first generation",95.6 ± 10 munits/mg protein
same,GST enzyme activity,"[11]; age 14 days, first generation",151.7 ± 11.7 munits/mg protein
same,GST enzyme activity,"[11]; age 21 days, 2nd generation",123.5 ± 2.1 munits/mg protein
same,change of GST activity compared with DMSO,"[11]; age 21 days, 2nd generation",+18%
same,GST enzyme activity,"[11]; age 21 days, first generation",67.6 ± 4.4 munits/mg protein
same,change of β-gal activity compared with DMSO,"β-galactosidase (β-gal); age 7 days, first generation",−17%
same,β-gal enzyme activity,"β-galactosidase (β-gal); age 7 days, first generation",1.26 ± 0.06 units/mg protein
same,β-gal enzyme activity,"β-galactosidase (β-gal); age 14 days, first generation",2.08 ± 0.75 units/mg protein
same,change of β-gal activity compared with DMSO,"β-galactosidase (β-gal); age 21 days, 2nd generation",−17%
same,β-gal enzyme activity,"β-galactosidase (β-gal); age 21 days, 2nd generation",3.93 ± 0.22 units/mg protein
same,β-gal enzyme activity,"β-galactosidase (β-gal); age 21 days, first generation",5.13 ± 0.25 units/mg protein
same,effect on activity of GST,GST [12],increase in the activity of GST
same,ACP enzyme activity,acid phosphatase (ACP) [13]; [15],8.14 ± 0.33 units/mg protein
same,ACP enzyme activity,acid phosphatase (ACP) [13]; [17],2.78 ± 0.21 units/mg protein
same,ACP enzyme activity,acid phosphatase (ACP) [13]; [18],3.09 ± 0.04 units/mg protein
same,ACP enzyme activity,acid phosphatase (ACP) [13]; [19],3.24 ± 0.47 units/mg protein
